Source: US9874558B2, “Immunoassay method less affected by impurities” (Konica Minolta, Inc., priority 2012, dated 2018)
pKd: −log10 of the molar value.

Legend:
[1] = molecular target: T1, Wisteria floribunda lectin (WFA) (Wisteria floribunda, UniProt A0A218PFP3); experiment: SPFS sandwich immunoassay of PSA with labeled WFA, added competing sugar chain compound, S/N ratio; details: PSA in commercially available serum, sugar chain compound 0.1% by weight in PBS for 10 minutes, none: S/N 2
T1 sequence (A0A218PFP3 31-273): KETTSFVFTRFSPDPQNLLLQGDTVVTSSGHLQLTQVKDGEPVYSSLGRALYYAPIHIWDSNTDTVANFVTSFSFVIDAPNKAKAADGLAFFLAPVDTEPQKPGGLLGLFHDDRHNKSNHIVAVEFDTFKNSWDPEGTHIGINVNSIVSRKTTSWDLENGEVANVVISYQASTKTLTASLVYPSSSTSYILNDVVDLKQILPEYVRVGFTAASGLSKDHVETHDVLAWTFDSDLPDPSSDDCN
Procedure: Antigen Addition Step: To one of the thus prepared sensor chip, 0.5 mL of a solution having a PSA concentration of 1.0 ng/mL, which was prepared by diluting the LNCaP culture supernatant with a commercially available serum (manufactured by Kohjin Bio Co., Ltd.), was added and circulated for 25 minutes in place of PBS. To the other sensor chip, a commercially available serum (manufactured by Kohjin Bio Co., Ltd.) containing no LNCaP culture supernatant was added and circulated for 25 minutes.
Washing Step: Each sensor chip was washed by circulating TBS containing 0.05% by weight of Tween 20 as a transfer liquid. Here, using a laser light source, the metal thin films of the sensor chip were irradiated with laser light having a wavelength of 635 nm, whose photon amount was adjusted by an optical filter (manufactured by Sigmakoki Co., Ltd.), through a prism (“S-LAL 10” manufactured by Ohara Inc. (refractive index [n]=1.72)), and the blank fluorescence was detected using a CCD image sensor (manufactured by Texas Instruments Inc.) equipped with a cut filter for cutting light having wavelengths of non-fluorescent components and an objective lens (×20). […]
Further, also for each of the following cases, the same experiment as described above was carried out and the S/N ratio was determined: […]

[2] = molecular target: T2, Lens culinaris lectin (LCA) (Lens culinaris, UniProt P02870); experiment: SPFS sandwich immunoassay of AFP with labeled LCA, added competing sugar chain compound, S/N ratio; details: AFP 3.0 ng/mL in commercially available serum, sugar chain compound 0.1% by weight in PBS for 10 minutes, none: S/N 2
T2 sequence (P02870 31-211 limits assumed): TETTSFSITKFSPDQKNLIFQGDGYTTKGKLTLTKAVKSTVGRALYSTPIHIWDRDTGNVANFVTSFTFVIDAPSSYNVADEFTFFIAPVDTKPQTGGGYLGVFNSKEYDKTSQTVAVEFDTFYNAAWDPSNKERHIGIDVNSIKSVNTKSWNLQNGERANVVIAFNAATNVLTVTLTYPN
T2 sequence (P02870 218-269 limits assumed): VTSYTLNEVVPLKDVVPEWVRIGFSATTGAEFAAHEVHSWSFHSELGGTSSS

[3] = molecular target: T2, Lens culinaris lectin (LCA); experiment: Dissociation constant (Kd) with labeled LCA lectin; type: binding; details: between sugar chain compound to be added and labeled lectin LCA; target compound AFP; read-out: Dissociation constant (Kd) x
Excerpt: In the present invention, the dissociation constant is defined as follows.
The binding between a sugar chain compound (A) and a lectin (B) occurs through a reversible reaction, and the following formula is established in an equilibrium state (wherein, [A] represents the concentration of the sugar chain compound (mol/L); [B] represents the concentration of the lectin (mol/L); and [A−B] represents the concentration of conjugates formed between the sugar chain compound and the lectin (mol/L)). [A−B]⇄[A]+[B]
In this case, the dissociation constant, Kd, between the sugar chain compound (A) and the lectin (B) is represented by the following equation: Kd=[A]×[B]/[A−B]

SMILES	S/N [1]	S/N [2]	pKd [3]
CC(C)CCCC(C)C1CCC2C3CC=C4CC(OC(=O)NCCOC5OC(C)[C@@H](O)C(O)[C@H]5O)CC[C@]4(C)C3CC[C@]12C (stereo partly drawn) [Fuc-2-Chol]	3		
CC(C)CCCC(C)C1CCC2C3CC=C4CC(OC(=O)NCCOC5OC(CO)[C@H](O)C(O)[C@@H]5O)CC[C@]4(C)C3CC[C@]12C (stereo partly drawn) [Man-2-Chol]		3	3.66
